Measured values: PMC3942886 (Molecular and cellular biochemistry, 2013)

Tested on: hexokinase (from baker's yeast purchased from Sigma)
Assay: pyruvate kinase/lactate dehydrogenase coupled assay, NADH oxidation
Assay type: biochemical
Conditions: read-out: Km(glucose); positive control; ATP co-substrate

OC[C@H]1OC(O)[C@H](O)[C@@H](O)[C@@H]1O (stereo partly shown) [glucose]
Km: ~300 µM
